Assay results from patent US6525059B1, “Substituted pyrazoles as p38 kinase inhibitors” (G. D. Searle & Company, priority 1998, dated 2003).
Where two headings read alike, the source gives them in different places.

Experiments:
[1] = test system: TNF alpha; test: Mouse model of LPS-induced TNF alpha production; format: in vivo; conditions: for inhibition in vivo at 100 mg/kg: 100 mpk oral gavage
Description: TNF alpha was induced in 10-12 week old BALB/c female mice by tail vein injection with 100 ng lipopolysaccharide (from S. Typhosa) in 0.2 ml saline. One hour later mice were bled from the retroorbital sinus and TNF concentrations in serum from clotted blood were quantified by ELISA.
Efficacy was determined at each time point as percent inhibition of serum TNF levels relative to LPS injected mice that received vehicle only
wherein in the dose is milligram per kilogram (mpk) administered by oral gavage and the predose time indicates the number of hours before LPS challenge when the compound is administered.

[2] = molecular target: T1, human p38 kinase alpha (Homo sapiens, UniProt Q16539); test: p38 kinase in vitro assay, phosphorylation of biotinylated PHAS-I with gamma 32P-ATP; format: biochemical
T1 construct: The coding region of the human p38a cDNA was obtained by PCR-amplification from RNA isolated from the human monocyte cell line THP.1; GST (N); made in house; host or cells: E. coli DH10B
T1 sequence (Q16539 whole entry): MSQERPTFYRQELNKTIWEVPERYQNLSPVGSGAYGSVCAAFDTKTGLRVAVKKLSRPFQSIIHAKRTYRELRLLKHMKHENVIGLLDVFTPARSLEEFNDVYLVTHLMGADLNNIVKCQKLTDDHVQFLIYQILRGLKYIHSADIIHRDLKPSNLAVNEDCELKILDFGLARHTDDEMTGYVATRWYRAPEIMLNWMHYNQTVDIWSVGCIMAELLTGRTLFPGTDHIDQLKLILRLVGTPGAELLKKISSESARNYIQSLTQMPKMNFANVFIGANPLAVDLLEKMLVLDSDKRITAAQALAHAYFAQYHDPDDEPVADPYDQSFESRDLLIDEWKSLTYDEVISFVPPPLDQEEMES
Summary of the method: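 Radiometric filter-capture read-out: streptavidin plates trap biotin-PHAS-I labelled by activated (MKK6) human p38α from γ-32P-ATP. Buffer 25 mM HEPES pH 7.5, 10 mM magnesium acetate, 50 μM cold ATP; reactions 1 h or overnight at 30 °C; inhibitors 10-fold dilutions 100 to 0.001 μM, triplicates, 1% DMSO.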

[3] = test system: TNF-α; test: LPS stimulation of TNF production by U937 cells; format: cell-based, human
Summary of the method: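 PMA-differentiated human U937 cells (20 ng/ml PMA, 24 h, then 24-48 h rest) at 2 million cells/ml, 0.1% DMSO final, stimulated with E. coli LPS (100 ng/ml final) for 4 h at 37° C. TNF-α in medium measured by ELISA; IC50 in μM.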

[4] = test system: TNF-α; test: Rat assay: LPS-challenged rats, serum TNF-α by ELISA; format: in vivo; conditions: Rattus norvegicus, po; for inhibition in vivo at 3 mg/kg: 3 mpk oral gavage, read-out: Rat LPS Model % inhib @ dose @ predose time; for inhibition in vivo at 20 mg/kg: Table 10, dose 20.0 mg/kg
[5] = molecular target: T2, human GST-p38 kinase alpha (Homo sapiens, UniProt Q16539); test: p38 kinase in vitro assay, second format, phosphorylation of EGFRP with 33P-ATP; format: biochemical
T2 construct: The coding region of the human p38a cDNA was obtained by PCR-amplification from RNA isolated from the human monocyte cell line THP.1; made in house; host or cells: E. coli DH10B
T2 sequence (Q16539 whole entry): as above
Summary of the method: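 Activated human GST-p38α (pre-activated with GST-MKK6, 1 h, 30 °C) phosphorylates EGFR 21-mer peptide (200 μM) with 50 μM ATP plus γ-33P-ATP, pH 7.5, 60 min at room temperature. Unreacted ATP removed by AG 1×8 resin; supernatant scintillation-counted.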

[6] = test system: human TNF; test: TNF inhibition: human whole blood assay; format: cell-based; conditions: Homo sapiens, LPS, read-out: TNF Inhibition-Human Whole Blood Assay
[7] = Mus musculus, 30 mpk oral gavage, -6h before LPS, read-out: Mouse LPS Model % TNF inhib @ dose @ predose time
[8] = read-out: P38 alpha kinase IC50
[9] = Homo sapiens, U-937, TNF production, LPS-stimulated human U937 cells, read-out: U937 Cell IC50
[10] = Mus musculus, -6h before LPS, read-out: Mouse LPS Model % TNF inhib @ dose @ predose time
[11] = mouse, oral, 1h before LPS, 30 mpk, read-out: mLPS 1h, 30 mpk percent inhibition
[12] = p38α in vitro, PHAS-I assay procedure, read-out: p38^1 IC50
[13] = Homo sapiens, U-937, LPS-stimulated U937 cells, read-out: U937 IC50
[14] = p38α in vitro, EGFRP assay procedure, read-out: p38^2 IC50
[15] = Table 10, dose 5.0 mg/kg, read-out: Rat LPS Assay % Inhibition
[16] = Table 10, 10% DMSO, @ 1.0 hour, read-out: p38α Kinase Assay IC50
[17] = Table 8, 10% DMSO, read-out: p38α Kinase Assay IC50

C[C@@H](NC(=O)c1ccccc1C(F)(F)F)c1[nH]nc(-c2ccc(F)cc2)c1-c1ccncc1 [Example B-0368]
inhibition in vivo at 30 mg/kg [1, 7]: 37%
IC50 [2, 8]: 1000 nM
IC50 [3, 9]: 640 nM

C#CCNC(=O)Cn1nc(-c2ccc(F)cc2)c(-c2ccncc2)c1C [Example B-2310]
Mouse LPS Model % TNF inhib @ dose @ predose time ([1]; 30 mpk oral gavage): 50% @ 30 mpk @ -6h

O=S(=O)(Cc1ccccc1)NCc1[nH]nc(-c2ccc(F)cc2)c1-c1ccncc1 [Example B-0120]
inhibition in vivo at 100 mg/kg [1, 10]: 77%
IC50 [2, 8]: 8 nM
inhibition in vivo at 3 mg/kg ([4]; -4 h, -4h before LPS): 70%
IC50 [3, 9]: 210 nM

OCCn1cc(-c2ccnc(CCc3ccc(F)cc3)c2)c(-c2ccc(F)cc2)n1 [Example A-272, 3-(4-fluorophenyl)-4-[2-[2-(4-fluorophenyl)ethyl]-4-pyridinyl]-1H-pyrazole-1-ethanol]
inhibition in vivo at 30 mg/kg [1, 11]: -8%
IC50 [2, 12]: 73 nM
IC50 [3, 13]: 583 nM

CCC(CO)Nc1cc(-c2c[nH]nc2-c2ccc(F)cc2)ccn1 (stereo not drawn) [Example A-213, 2-[[4-[3-(4-fluorophenyl)-1H-pyrazol-4-yl]-2-pyridinyl]amino)-1-butanol]
inhibition in vivo at 30 mg/kg [1, 11]: 57%
IC50 [5, 14]: 220 nM

CN(C)CCNc1cc(-c2c[nH]nc2-c2ccc(F)cc2)ccn1 [Example A-264, N′-[4-[3-(4-fluorophenyl)-1H-pyrazol-4-yl]-2-pyridinyl]-N,N-dimethyl-1,2-ethanediamine]
inhibition in vivo at 30 mg/kg [1, 11]: 61%
IC50 [3, 13]: 259 nM

Fc1ccc(-c2nn(CCN3CCOCC3)cc2-c2ccnc(F)c2)cc1 [Example A-269, 4-[2-[3-(4-fluorophenyl)-4-(2-fluoro-4-pyridinyl)-1H-pyrazol-1-yl]ethyl]morpholine]
inhibition in vivo at 30 mg/kg [1, 11]: 51%
IC50 [3, 13]: > 10000 nM

Fc1ccc(-c2n[nH]cc2-c2ccnc(F)c2)cc1 [Example A-249, 2-fluoro-4-[3-(4-fluorophenyl)-1H-pyrazol-4-yl]pyridine]
inhibition in vivo at 30 mg/kg [1, 11]: 86%
IC50 [5, 14]: 432 nM

Cc1c(-c2ccncc2)c(-c2ccc(F)cc2)nn1CC(=O)NCCc1ccc(Oc2ccccc2)cc1 [Example B-2286]
Mouse LPS Model % TNF inhib @ dose @ predose time ([1]; 30 mpk oral gavage, 1 h before LPS challenge): 25% @ 30 mpk @ -1h
IC50 [2, 8]: 17 nM
IC50 ([3]; TNF production, LPS-stimulated human U937 cells, read-out: U937 Cell IC50): 780 nM

O=C(NCc1[nH]nc(-c2ccc(F)cc2)c1-c1ccncc1)c1c(F)cc(F)cc1F [Example B-0051]
inhibition in vivo at 100 mg/kg [1, 10]: 47%
inhibition in vivo at 3 mg/kg ([4]; 4 h, 4h): 79%
IC50 [3, 9]: 2150 nM

Cn1cc(-c2ccncc2)c(-c2cccc(F)c2)n1 [Example A-229, 4-[3-(3-fluorophenyl)-1-methyl-1H-pyrazol-4-yl]pyridine]
inhibition in vivo at 30 mg/kg [1, 11]: 91%
IC50 [3, 13]: 462 nM

Cn1nc(-c2ccc(F)cc2)c(-c2ccncc2)c1C(O)c1ccccc1 (stereo not drawn) [Example A-217, 3-(4-fluorophenyl)-1-methyl -α-phenyl-4-(4-pyridinyl)-1H-pyrazole-5-methanol]
inhibition in vivo at 30 mg/kg [1, 11]: 9%
IC50 [2, 12]: 697 nM
IC50 [3, 13]: 349 nM

Fc1cccc(-c2n[nH]cc2-c2ccncc2)c1 [Example A-227, 4-[3-(3-fluorophenyl)-1H-pyrazol-4-yl]pyridine]
inhibition in vivo at 30 mg/kg [1, 11]: 96%
IC50 [5, 14]: 60 nM

Fc1cc(-c2c[nH]nc2-c2ccc(Cl)cc2)ccn1 [Example A-240, 4-[3-(4-chlorophenyl)-1H-pyrazol-4-yl]-2-fluoropyridine]
inhibition in vivo at 30 mg/kg [1, 11]: 85%
IC50 [5, 14]: 961 nM

CN(C)CCn1cc(-c2ccnc(N(C)C)c2)c(-c2ccc(F)cc2)n1 [Example A-273, 4-[1-[2-(dimethylamino)ethyl]-3-(4-fluorophenyl)-1H-pyrazol-4-yl]-N,N-dimethyl-2-pyridinamine]
inhibition in vivo at 30 mg/kg [1, 11]: 43%
IC50 [2, 12]: 6980 nM
IC50 [3, 13]: > 10000 nM

OCCn1cc(-c2ccncc2)c(-c2ccc(F)cc2)n1 [Example A-210, 3-(4-fluorophenyl)-4-(4-pyridinyl)-1H-pyrazole-1-ethanol]
inhibition in vivo at 30 mg/kg [1, 11]: 93%
IC50 [2, 12]: 160 nM
IC50 [3, 13]: 198 nM

Cn1cc(-c2ccncc2)c(-c2ccc(Cl)cc2)n1 [Example A-232, 4-[3-(4-chlorophenyl)-1-methyl-1H-pyrazol-4-yl]pyridine]
inhibition in vivo at 30 mg/kg [1, 11]: 96%
IC50 [5, 14]: 48 nM

Cn1cc(-c2ccncc2)c(-c2ccc(F)c(F)c2)n1 [Example A-242, 4-[3-(3,4-difluorophenyl)-1-methyl-1H-pyrazol-4-yl]pyridine]
inhibition in vivo at 30 mg/kg [1, 11]: 87%
IC50 [5, 14]: 47 nM

Fc1ccc(-c2n[nH]cc2-c2ccncc2)cc1F [Example A-239, 4-[3-(3,4-difluorophenyl)-1H-pyrazol-4-yl]pyridine]
inhibition in vivo at 30 mg/kg [1, 11]: 87%
IC50 [5, 14]: 34 nM

CC(Oc1ccccc1)C(=O)NCc1[nH]nc(-c2ccc(F)cc2)c1-c1ccncc1 (stereo not drawn) [Example B-0087]
inhibition in vivo at 30 mg/kg [1, 7]: 38%
IC50 [2, 8]: 550 nM

Fc1ccc(-c2n[nH]cc2-c2ccnc(NCCN3CCOCC3)c2)cc1 [Example A-266, N-[4-[3-(4-fluorophenyl)-1H-pyrazol-4-yl)-2-pyridinyl]-4-morpholineethanamine]
inhibition in vivo at 30 mg/kg [1, 11]: 0%
IC50 [3, 13]: 539 nM

O=C(COc1ccc(Cl)cc1)NCc1[nH]nc(-c2ccc(F)cc2)c1-c1ccncc1 [Example B-0093]
inhibition in vivo at 30 mg/kg [1, 7]: 30%
IC50 [2, 8]: 3180 nM
IC50 [3, 9]: 1250 nM

COc1ccc(-c2[nH]nc(N3CCN(C)CC3)c2-c2ccncc2)cc1Cl [Example A-413]
melting point: 272.7 to 276.4 °C
IC50 ([6]; Table 10, human whole blood): 6510 nM
inhibition in vivo at 5 mg/kg [4, 15]: 45%
inhibition in vivo at 20 mg/kg [4]: 85%
IC50 [5, 16]: 910 nM

COc1ccccc1Nc1nccc(-c2cn[nH]c2-c2ccc(F)cc2)n1 [Example A-326, 4-[3-(4-fluorophenyl)-1H-pyrazol-4-yl]-N-(2-methoxyphenyl)-2-pyrimidinamine]
melting point: 265 °C (dec.)
IC50 ([6]; Table 8, human whole blood): > 25000 nM
inhibition in vivo at 10 mg/kg ([4]; Table 8, dose 10.0 mg/kg): 0%
IC50 [5, 17]: 970 nM

Clc1ccc(-c2n[nH]c(SCC3OCCO3)c2-c2ccncc2)cc1 [Example A-473]
melting point: 197 to 198.2 °C
IC50 ([6]; Table 10, human whole blood): 560 nM
inhibition in vivo at 20 mg/kg [4]: 58%
IC50 [5, 16]: 170 nM

C[C@@H](NC(=O)c1ccccc1I)c1[nH]nc(-c2ccc(F)cc2)c1-c1ccncc1 [Example B-0354]
inhibition in vivo at 30 mg/kg [1, 7]: 51%
IC50 [2, 8]: 1000 nM
inhibition in vivo at 3 mg/kg ([4]; -4 h, -4h before LPS): 54%
IC50 [3, 9]: 660 nM

C#CCN1CCN(c2n[nH]c(-c3ccc(Cl)cc3)c2-c2ccncc2)CC1 [Example A-333, 1-[5-(4-chlorophenyl)-4-(4-pyridinyl)-1H-pyrazol-3-yl]-4-(2-propynyl)piperazine]
melting point: 247 °C (dec.)
IC50 ([6]; Table 8, human whole blood): 585 nM
inhibition in vivo at 5 mg/kg ([4]; Table 8, dose 5.0 mg/kg, read-out: Rat LPS Assay % Inhibition): 69%
IC50 [5, 17]: 52 nM

C[C@@H](NS(=O)(=O)c1ccc(F)cc1)c1[nH]nc(-c2ccc(F)cc2)c1-c1ccncc1 [Example B-0385]
inhibition in vivo at 30 mg/kg [1, 7]: 30%
IC50 [2, 8]: 57 nM
inhibition in vivo at 3 mg/kg ([4]; -4 h, -4h before LPS): 0%
IC50 [3, 9]: 900 nM

N#CCSc1[nH]nc(-c2ccc(Cl)cc2)c1-c1ccncc1 [Example A-456]
melting point: 230 to 230.5 °C
IC50 ([6]; Table 10, human whole blood): 980 nM
inhibition in vivo at 1 mg/kg ([4]; Table 10, dose 1.0 mg/kg, read-out: Rat LPS Assay % Inhibition): 36%
inhibition in vivo at 5 mg/kg [4, 15]: 48%
inhibition in vivo at 20 mg/kg [4]: 53%
IC50 [5, 16]: 120 nM

COc1ccc(S(=O)(=O)NCc2[nH]nc(-c3ccc(F)cc3)c2-c2ccncc2)cc1 [Example B-0117]
inhibition in vivo at 30 mg/kg [1, 7]: 30%
IC50 [2, 8]: 460 nM
IC50 [3, 9]: 1780 nM
